These are literature values, as cited in patent US20050032782A1, “Treatment of chronic pain associated with drug or radiation therapy” (Cypress Bioscience, Inc., priority 2003, published 2005).

SMILES strings stand for the structures. pIC50: −log10 of the molar value.

The target of this data set is NMDA receptor. The following applies: reported by Shuto et al.; read-out: IC50 value, NMDA receptor antagonistic properties.

For `CCN(CC)C(=O)C1(c2ccccc2)CC1CN` (stereo not shown) [milnacipran], the pIC50 was ~5.20.
